Source: patent US8048908B2, “11β-hydroxysteroid dehydrogenase type 1 active compounds” (High Point Pharmaceuticals, LLC, priority 2006, dated 2011)

Key:
h-11βHSD1 = target: T1, h-11βHSD1 (Homo sapiens, UniProt P28845); test: 11βHSD1 Enzyme Assay (scintillation proximity assay); type: biochemical; conditions: yeast extract expressing h-11βHSD1, 120 nM 3H-cortisone, 4 mM β-NADPH, 60 min at 30° C.
T1 construct: made in house
Method: ^3H-cortisone and anti-rabbit Ig coated scintillation proximity assay (SPA) beads were purchased from Amersham Pharmacia Biotech, —NADPH was from Sigma and rabbit anti-cortisol antibodies were from Fitzgerald. An extract of yeast transformed with h-11βHSD1 (Hult et al., FEBS Lett., 441, 25 (1998)) was used as the source of enzyme. The test compounds were dissolved in DMSO (10 mM). All dilutions were performed in a buffer containing 50 mM TRIS-HCl (Sigma Chemical Co), 4 mM EDTA (Sigma Chemical Co), 0.1% BSA (Sigma Chemical Co), 0.01% Tween-20 (Sigma Chemical Co) and 0.005% bacitracin (Novo Nordisk A/S), pH=7.4. Optiplate 96 wells plates were supplied by Packard. The amount of ^3H-cortisol bound to the SPA beads was measured on Top-Count NXT, Packard.
h-11βHSD1, 120 nM ^3H-cortisone, 4 mM β-NADPH, antibody (1:200), serial dilutions of test compound and SPA particles (2 mg/well) were added to the wells. The reaction was initiated by mixing the different components and was allowed to proceed under shaking for 60 min at 30° C. The reaction was stopped be the addition of 10 fold excess of a stopping buffer containing 500 μM carbenoxolone and 1 μM cortisone. Data was analysed using GraphPad Prism software.

11βHSD1 = target: T2, 11βHSD1 (Homo sapiens, UniProt P28845); conditions: lean healthy volunteers and people with type 2 diabetes; cited from earlier work
T2 construct: host or cells: human subjects (in vivo)
T2 sequence (P28845 whole entry): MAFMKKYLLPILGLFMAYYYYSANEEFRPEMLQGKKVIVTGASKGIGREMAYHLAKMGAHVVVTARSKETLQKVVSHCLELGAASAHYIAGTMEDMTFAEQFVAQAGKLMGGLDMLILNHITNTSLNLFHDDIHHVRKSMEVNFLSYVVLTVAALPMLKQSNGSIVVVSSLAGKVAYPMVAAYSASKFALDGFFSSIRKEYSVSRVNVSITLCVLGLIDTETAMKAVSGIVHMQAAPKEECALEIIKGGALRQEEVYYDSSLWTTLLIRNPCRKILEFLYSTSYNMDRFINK

T1 sequence (P28845 whole entry): as above

SMILES | IC50 (h-11βHSD1) | insulin sensitivity (11βHSD1)
CC1(C)CC2CC(C)(CN2C(=O)c2ccc(N3CCC(C(=O)NC4CCC(O)CC4)C3)cc2)C1 (stereo not shown) [Example 1-7, 1-[4-(1,3,3-Trimethyl-6-aza-bicyclo[3.2.1]octane-6-carbonyl)-phenyl]-pyrrolidine-3-carboxylic acid (4-hydroxy-cyclohexyl)-amide] | 125 nM | 
CN(C(=O)C1CC1)C1CCN(c2ccc(C(=O)N3CC4CCC(CC4)C3)cc2)C1 (stereo not shown) [Example 1-31, Cyclopropanecarboxylic acid {1-[4-(3-aza-bicyclo[3.2.2]-nonane-3-carbonyl)-phenyl]-pyrrolidin-3-yl}-methyl-amide] | 128 nM | 
CN(C1CCN(c2ccc(C(=O)N3CC4CCC(CC4)C3)cc2)C1)S(=O)(=O)Cc1ccccc1 (stereo not shown) [Example 1-33, N-{1-[4-(3-Aza-bicyclo[3.2.2]-nonane-3-carbonyl)-phenyl]-pyrrolidin-3-yl}-N-methyl-phenyl-methanesulfonamide] | 43 nM | 
CC1(C)[C@@H](OC(=O)CCC(=O)O)CC[C@]2(C)[C@H]3C(=O)C=C4[C@@H]5C[C@@](C)(C(=O)O)CC[C@]5(C)CC[C@@]4(C)[C@]3(C)CC[C@@H]12 [carbenoxolone] |  | improves insulin sensitivity
